Key:
CB2 = target: T1, CB2 (Homo sapiens, UniProt P34972); test: cAMP assay (HitHunter), inhibition of forskolin-stimulated cAMP in CHO-K1-CB2 cells; assay type: cell-based
T1 construct: gene CNR2; expressed in CHO-K1-CB2 cell line (DiscoverX), cAMP reporter platform
Description: cAMP assay (HitHunter), inhibition of forskolin-stimulated cAMP in CHO-K1-CB2 cells on CB2

CB1 = target: T2, CB1 (Homo sapiens, UniProt P21554); test: cAMP assay (HitHunter), inhibition of forskolin-stimulated cAMP in CHO-K1-CB1 cells; assay type: cell-based
T2 construct: gene CNR1; expressed in CHO-K1-CB1 cell line (DiscoverX), cAMP reporter platform
Description: cAMP assay (HitHunter), inhibition of forskolin-stimulated cAMP in CHO-K1-CB1 cells on CB1

[1] = read-out: Receptor Potency (μM) / ^b IC50 (Antagonist) / CB1

T2 sequence (P21554 whole entry): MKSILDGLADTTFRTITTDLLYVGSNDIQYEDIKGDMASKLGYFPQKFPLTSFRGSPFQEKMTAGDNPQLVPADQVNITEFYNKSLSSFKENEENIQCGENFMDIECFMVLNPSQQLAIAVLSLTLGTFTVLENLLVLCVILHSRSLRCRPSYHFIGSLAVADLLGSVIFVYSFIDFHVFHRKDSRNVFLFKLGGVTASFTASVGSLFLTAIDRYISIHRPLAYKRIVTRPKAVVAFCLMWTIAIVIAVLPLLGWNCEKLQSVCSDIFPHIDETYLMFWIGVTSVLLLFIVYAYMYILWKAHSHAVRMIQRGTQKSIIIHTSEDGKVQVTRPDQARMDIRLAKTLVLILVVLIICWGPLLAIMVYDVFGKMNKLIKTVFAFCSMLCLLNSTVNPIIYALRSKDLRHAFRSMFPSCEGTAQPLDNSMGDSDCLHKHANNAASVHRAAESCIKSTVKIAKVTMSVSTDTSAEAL
T1 sequence (P34972 whole entry): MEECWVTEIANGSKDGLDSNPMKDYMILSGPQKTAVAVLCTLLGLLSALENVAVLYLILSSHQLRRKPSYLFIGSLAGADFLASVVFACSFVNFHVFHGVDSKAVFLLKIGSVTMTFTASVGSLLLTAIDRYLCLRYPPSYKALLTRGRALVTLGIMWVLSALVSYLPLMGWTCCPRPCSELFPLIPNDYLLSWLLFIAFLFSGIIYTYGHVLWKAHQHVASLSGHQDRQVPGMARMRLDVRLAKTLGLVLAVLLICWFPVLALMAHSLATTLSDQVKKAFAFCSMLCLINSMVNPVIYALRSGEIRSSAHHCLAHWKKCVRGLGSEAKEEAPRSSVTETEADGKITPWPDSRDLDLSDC

Q: How did the EC50 (CB2; read-out: Receptor Potency (μM) / ^a EC50 (Agonist) / CB2) turn out when `C=C(C)[C@@H]1CCC(C)=C[C@H]1c1c(O)cc(CCCCC)c(C(=O)O)c1O` [CBDA] was run?
A: 17 ± 4 µM

Q: And the IC50 (CB2; [1])?
A: > 10 µM

Q: What about the EC50 (CB1; read-out: Receptor Potency (μM) / ^a EC50 (Agonist) / CB1) of the same compound?
A: 17 ± 3 µM

Q: What about the IC50 (CB1; [1]) of the same compound?
A: > 10 µM

Source: publication PMC7436063, “Bioactive Chemical Composition of Cannabis Extracts and Cannabinoid Receptors” (Molecules, 2020)
